Test system: tumor cells KN7 -8
Experiment: Anti-tumor activity in mice inoculated with tumor cells
Type: in vivo, Balb/c male mice
Details: 30 mg/kg intraperitoneally, 24 hours before inoculation and on second and fifth day after; 6 mice per group
Description: Groups, each consisting of 6 Balb/c male mice weighing about 20 g, were intraperitoneally administered 5×10^5 of tumor cells KN7 -8.
For CC(C)=CCCC(C)=CCCC(C)=CCCC(C)=CCCC(C)=CCCC(C)=CCCC(C)=CCCC(C)=CCCC(C)=CCCC(C)=CCNCc1cccc(CN)c1 [drawing 58], the “Anti-tumor activity (Survivor on the 30th day)” value was 1/6.

Test system: vaccinia virus
Experiment: not given
Type: cell-based
Details: 50 n molar concentration, Vero cells, in vitro
With COc1ccc(CNCC=C(C)CCCC(C)CCCC(C)CCCC(C)C)cc1OC (stereo not drawn) [drawing 90] the “Anti-vaccinia virus activity Plaque inhibition rate %” value was 22.0%. In the case of CC(C)=CCCC(C)=CCCC(C)=CCCC(C)=CCCC(C)=CCCC(C)=CCCC(C)=CCCC(C)=CCCC(C)=CCNCc1ccc(C)cc1C, the “Anti-vaccinia virus activity Plaque inhibition rate %” value is reported as 9.8%.

Test system: not listed separately
Experiment: Toxicity (50% lethal dose, intravenous)
Details: mouse, in vivo, ddY male mice 20-25 g, read-out: LD50 (Intravenously administered mg/kg)
Description: Using ddY male mice weighing 20-25 g, 50% lethal dose of each test compound when intravenously administered was obtained, the results of which are shown in Table 5.
With CC(C)=CCCC(C)=CCCC(C)=CCCC(C)=CCCC(C)=CCCC(C)=CCCC(C)=CCCC(C)=CCCC(C)=CCCC(C)=CCNc1ccc(C(=O)O)c(O)c1 [drawing 60] the LD50 was 45 mg/kg. Work on CC(C)=CCCC(C)=CCCC(C)=CCCC(C)=CCCC(C)=CCCC(C)=CCCC(C)=CCCC(C)=CCCC(C)=CCCC(C)=CCNCCc1ccc(N)cc1 [drawing 67] yielded an LD50 of 28 mg/kg. Work on COc1ccc(CNCC=C(C)CCC=C(C)CCC=C(C)CCC=C(C)CCC=C(C)CCC=C(C)CCC=C(C)CCC=C(C)CCC=C(C)CCC=C(C)C)cc1OC [drawing 65] yielded an LD50 of 56.8 mg/kg. For CC(C)=CCCC(C)=CCCC(C)=CCCC(C)=CCCC(C)=CCCC(C)=CCCC(C)=CCCC(C)=CCCC(C)=CCCC(C)=CCNC(c1ccccc1)c1ccccc1 [drawing 66], the LD50 was 1180 mg/kg. CC(C)=CCCC(C)=CCCC(C)=CCCC(C)=CCCC(C)=CCCC(C)=CCCC(C)=CCCC(C)=CCCC(C)=CCCC(C)=CCNCc1cccc2ccccc12 [drawing 62] showed an LD50 of 207 mg/kg. With CC(C)=CCCC(C)=CCCC(C)=CCCC(C)=CCCC(C)=CCCC(C)=CCCC(C)=CCCC(C)=CCCC(C)=CCCC(C)=CCNc1ccc(C(=O)O)cc1 [drawing 59] the LD50 was 27.7 mg/kg. With CC(C)=CCCC(C)=CCCC(C)=CCCC(C)=CCCC(C)=CCCC(C)=CCCC(C)=CCCC(C)=CCCC(C)=CCCC(C)=CCNCc1ccc(C)cc1 [drawing 63] the LD50 was 123 mg/kg. COc1ccc(CNCC=C(C)CCC=C(C)CCC=C(C)CCC=C(C)CCC=C(C)CCC=C(C)CCC=C(C)CCC=C(C)CCC=C(C)C)cc1OC [drawing 69] gave an LD50 of 26 mg/kg. For CC(C)=CCCC(C)=CCCC(C)=CCCC(C)=CCCC(C)=CCCC(C)=CCCC(C)=CCCC(C)=CCCC(C)=CCCC(C)=CCNCc1ccc([N+](=O)[O-])cc1 [drawing 61], the LD50 was > 269 mg/kg. COc1ccc(CNCC=C(C)CCC=C(C)CCC=C(C)CCC=C(C)CCC=C(C)CCC=C(C)CCC=C(C)CCC=C(C)CCC=C(C)CCC=C(C)C)cc1 [drawing 68] showed an LD50 of 68 mg/kg. For CC(C)=CCCC(C)=CCCC(C)=CCCC(C)=CCCC(C)=CCCC(C)=CCCC(C)=CCCC(C)=CCCC(C)=CCCC(C)=CCNCc1ccc(Cl)cc1 [drawing 64], the LD50 was 371 mg/kg. With COc1cccc(CNCC=C(C)CCC=C(C)CCC=C(C)CCC=C(C)CCC=C(C)CCC=C(C)CCC=C(C)CCC=C(C)CCC=C(C)CCC=C(C)C)c1OC [drawing 70] the LD50 was 30 mg/kg.

— patent US4514573A, “Isoprenylamine derivatives” (priority 1981, dated 1985)
